Test results: patent US11292807B2 (OCEANS LTD., priority 2015, dated 2022)
Like-named read-outs stand apart in the source and are kept apart here.

Tests used:
cancer cell lines = assay: Anti-cancer screening of extracts, fractions and compounds (CIMA assay, bioassay-guided fractionation); assay type: cell-based, human; conditions: in vitro
Experimental: Lead crude extracts were fractionated into five fractions by C-18 SPE column separation using 15 ml each of 5% methanol (fraction 1), 25% methanol (fraction 2), 50% methanol (fraction 3), 100% methanol (fraction 4) and […] (fraction 5). Extracts were fractionated and the resulting fractions were evaluated using CIMA assay. Bio-assay guided fractionation provided detailed information regarding the compound(s) responsible for specific bioactivity.

MDA-MB [1] = conditions: MDA-MB
MDA-MB [2] = assay: cells; conditions: Homo sapiens, read-out: Average cell viability, MDA-MB
in vitro = conditions: human, Average cell viability
PC3 = assay: CIMA assay, cell viability, PC3; conditions: for Fold change in viability AVG: PC3
[3] = system: U373 (glioblastoma-astrocytoma); assay: CIMA assay, cell viability, U373; conditions: for Fold change in viability AVG: U373
[4] = system: SKOV3 (ovarian adenocarcinoma); assay: CIMA assay, cell viability, SKOV3; conditions: for Fold change in viability AVG: SKOV
Experimental: (§1) Stock solutions of the extracts were prepared in dimethylsulfoxide (DMSO) at 10 mg/mL and stored in 200 μl aliquots at −20° C. until analysis. This preparation ensured that the DMSO delivered to cells in culture never exceeded 1%.
(§2) Prepared extracts were assessed following chronic exposure conditions in which cells were seeded at 2×10^3 cells/well (96 well-plate) and incubated with test compounds for 72 h. Each compound was evaluated over a range of concentrations (0, 10, 25, 50 or 100 μg/ml). Cell proliferation was initially assessed using a standard colorimetric indicator of metabolic activity (CIMA) assay. In this assay, tetrazole reduction was evaluated as a measure of metabolic function that evaluates mitochondrial activity to determine the extent of cell proliferation within a culture. This assay is based on the reduction of yellow tetrazolium salt to purple formazan by mitochondrial reductases enzyme in viable cells, resulting in a color changed that confers a change in absorbance.

[5] = system: THP-1 (acute monocytic leukemia); assay: CIMA assay, cell viability, THP-1; conditions: for Fold change in viability AVG: THP-1
Experimental: as §1, §2

[6] = system: CCD1079SK (fibroblast, noncancerous but proliferating); assay: CIMA assay, cell viability, CCD1079SK; conditions: CCD
A549 (lung carcinoma) = assay: CIMA assay (colorimetric indicator of metabolic activity), cell viability, A549; conditions: for Fold change in viability AVG: A549
Experimental: as §1, §2

**Q.** Which “anti-cancer activity (in words)” value (cancer cell lines) does the source give for CO[C@H]1CC(C)(C)C(/C=C/C(C)=C/C=C/C(C)=C/C=C/C=C(C)/C=C/C=C(C)/C=C/[C@H]2C(C)=C[C@@H](O)CC2(C)C)=C(C)C1=O [C] here?
**A.** anti-cancer activity

**Q.** What does the source list for CCCCC/C=C\C/C=C\CCCCCCCC(=O)O [Compound 20, linoleic acid]?
**A.** MDA-MB AVG (MDA-MB [1]; sample at 1 ug/mL): 1.09; MDA-MB AVG (MDA-MB [1]; sample at 10 ug/mL): 1.04; MDA-MB AVG (MDA-MB [1]; sample at 50 ug/mL): 0.19; MDA-MB AVG (MDA-MB [1]; sample at 100 ug/mL): 0.16; Fold change in viability AVG (MDA-MB [1]; 1 ug/mL): 1.09; Fold change in viability AVG (MDA-MB [1]; 10 ug/mL): 1.04; Fold change in viability AVG (MDA-MB [1]; 50 ug/mL): 0.19; Fold change in viability AVG (MDA-MB [1]; 100 ug/mL): 0.16; viability at 1 µg/mL (MDA-MB [2]; 1 ug/mL): 100%; viability at 10 µg/mL (MDA-MB [2]; 10 ug/mL): 95%; viability at 50 µg/mL (MDA-MB [2]; 50 ug/mL): 17%; viability at 100 µg/mL (MDA-MB [2]; 100 ug/mL): 15%; viability at 72 h, 1 ug/mL (in vitro): 93%; viability at 72 h, 10 ug/mL (in vitro): 97%; viability at 72 h, 50 ug/mL (in vitro): 13%; viability at 72 h, 100 ug/mL (in vitro): 6%; viability at 1 µg/mL (PC3; Homo sapiens, PC-3, read-out: Average cell viability, PC3, 1 ug/mL): 91%; viability at 10 µg/mL (PC3; Homo sapiens, PC-3, read-out: Average cell viability, PC3, 10 ug/mL): 97%; viability at 50 µg/mL (PC3; Homo sapiens, PC-3, read-out: Average cell viability, PC3, 50 ug/mL): 11%; viability at 100 µg/mL (PC3; Homo sapiens, PC-3, read-out: Average cell viability, PC3, 100 ug/mL): 6%; PC3 AVG (PC3; PC3, sample at 1 ug/mL): 0.94; PC3 AVG (PC3; PC3, sample at 10 ug/mL): 1.00; PC3 AVG (PC3; PC3, sample at 50 ug/mL): 0.12; PC3 AVG (PC3; PC3, sample at 100 ug/mL): 0.06; Fold change in viability AVG (PC3; 1 ug/mL): 0.94; Fold change in viability AVG (PC3; 10 ug/mL): 1.00; Fold change in viability AVG (PC3; 50 ug/mL): 0.12; Fold change in viability AVG (PC3; 100 ug/mL): 0.06; viability at 1 µg/mL ([3]; Homo sapiens, U373 MG, read-out: Average cell viability, U373, 1 ug/mL): 87%; viability at 10 µg/mL ([3]; Homo sapiens, U373 MG, read-out: Average cell viability, U373, 10 ug/mL): 89%; viability at 50 µg/mL ([3]; Homo sapiens, U373 MG, read-out: Average cell viability, U373, 50 ug/mL): 7%; viability at 100 µg/mL ([3]; Homo sapiens, U373 MG, read-out: Average cell viability, U373, 100 ug/mL): 5%; U373 AVG ([3]; U373, sample at 1 ug/mL): 0.89; U373 AVG ([3]; U373, sample at 10 ug/mL): 0.90; U373 AVG ([3]; U373, sample at 50 ug/mL): 0.07; U373 AVG ([3]; U373, sample at 100 ug/mL): 0.05; Fold change in viability AVG ([3]; 1 ug/mL): 0.89; Fold change in viability AVG ([3]; 10 ug/mL): 0.90; Fold change in viability AVG ([3]; 50 ug/mL): 0.07; Fold change in viability AVG ([3]; 100 ug/mL): 0.05; viability at 1 µg/mL ([4]; Homo sapiens, SK-OV-3, read-out: Average cell viability, SKOV, 1 ug/mL): 85%; viability at 10 µg/mL ([4]; Homo sapiens, SK-OV-3, read-out: Average cell viability, SKOV, 10 ug/mL): 88%; viability at 50 µg/mL ([4]; Homo sapiens, SK-OV-3, read-out: Average cell viability, SKOV, 50 ug/mL): 67%; viability at 100 µg/mL ([4]; Homo sapiens, SK-OV-3, read-out: Average cell viability, SKOV, 100 ug/mL): 26%; Fold change in viability AVG ([4]; 1 ug/mL): 0.91; Fold change in viability AVG ([4]; 10 ug/mL): 0.95; Fold change in viability AVG ([4]; 50 ug/mL): 0.73; Fold change in viability AVG ([4]; 100 ug/mL): 0.28; viability at 1 µg/mL ([5]; Homo sapiens, THP-1, read-out: Average cell viability, THP-1, 1 ug/mL): 91%; viability at 10 µg/mL ([5]; Homo sapiens, THP-1, read-out: Average cell viability, THP-1, 10 ug/mL): 91%; viability at 50 µg/mL ([5]; Homo sapiens, THP-1, read-out: Average cell viability, THP-1, 50 ug/mL): 21%; viability at 100 µg/mL ([5]; Homo sapiens, THP-1, read-out: Average cell viability, THP-1, 100 ug/mL): 17%; THP-1 AVG ([5]; THP-1, sample at 1 ug/mL): 1.04; THP-1 AVG ([5]; THP-1, sample at 10 ug/mL): 1.03; THP-1 AVG ([5]; THP-1, sample at 50 ug/mL): 0.24; THP-1 AVG ([5]; THP-1, sample at 100 ug/mL): 0.19; Fold change in viability AVG ([5]; 1 ug/mL): 1.04; Fold change in viability AVG ([5]; 10 ug/mL): 1.03; Fold change in viability AVG ([5]; 50 ug/mL): 0.24; Fold change in viability AVG ([5]; 100 ug/mL): 0.19; Fold change in viability AVG ([6]; 1 ug/mL): 1.02; Fold change in viability AVG ([6]; 10 ug/mL): 1.07; Fold change in viability AVG ([6]; 50 ug/mL): 0.15; Fold change in viability AVG ([6]; 100 ug/mL): 0.06; A549 AVG (A549 (lung carcinoma); A549, sample at 1 ug/mL): 1.11; A549 AVG (A549 (lung carcinoma); A549, sample at 10 ug/mL): 1.12; A549 AVG (A549 (lung carcinoma); A549, sample at 50 ug/mL): 0.66; A549 AVG (A549 (lung carcinoma); A549, sample at 100 ug/mL): 0.13; Fold change in viability AVG (A549 (lung carcinoma); 1 ug/mL): 1.11; Fold change in viability AVG (A549 (lung carcinoma); 10 ug/mL): 1.12; Fold change in viability AVG (A549 (lung carcinoma); 50 ug/mL): 0.66; Fold change in viability AVG (A549 (lung carcinoma); 100 ug/mL): 0.13; viability at 1 µg/mL (A549 (lung carcinoma); Homo sapiens, A549, read-out: Average cell viability, A549, 1 ug/mL): 95%; viability at 10 µg/mL (A549 (lung carcinoma); Homo sapiens, A549, read-out: Average cell viability, A549, 10 ug/mL): 96%; viability at 50 µg/mL (A549 (lung carcinoma); Homo sapiens, A549, read-out: Average cell viability, A549, 50 ug/mL): 56%; viability at 100 µg/mL (A549 (lung carcinoma); Homo sapiens, A549, read-out: Average cell viability, A549, 100 ug/mL): 11%

**Q.** For CO[C@H]1CC(C)(C)C(/C=C/C(C)=C/C=C/C(C)=C/C=C/C=C(C)/C=C/C=C(C)/C=C/C2=C(C)C[C@@H](O)CC2(C)C)=C(C)C1=O [D], which “anti-cancer activity (in words)” value (cancer cell lines) is on record?
**A.** anti-cancer activity
